Experiments:
chickens = assay: Chicken grow out in 20,000 Ft^2 poultry house; type: in vivo
Experimental: (§1) The present invention is illustrated by the following Examples however, these Examples are not to be construed as limiting the invention.
3. (Prior art) A poultry house was prepared by cleaning out the used animal bedding (shaved wood chips) The poultry house was then sprayed with a maximum formulation of formaldehyde. After a 72 hour drying period new shaved wood chips were spread in the poultry house and stocked with 19,000 thousand chickens, temperature of the house was maintained at 74% F±4 degrees F. for the term of the grow out. The terms of the grow out was 45 days, average moisture content in the bedding was maintained below 14%. Average relative humidity in the house atmosphere ranged from 40% to 84%.
After two weeks, 200 pounds of alum (aluminum sulfate) was spread evenly on top of the shaved wood chips and dispersed throughout.
7. A poultry house was prepared by using used bedding material. The used animal bedding (shaved wood chips) and manure had been in use for 18 months without removal. A direct spray on application consisting of a solution of one pound of TCM per 125 gallons of water or 100 ppm was sprayed on top of the used animal bedding. 19,000 young chickens were placed in the poultry house. The average temperature of the house was maintained at 78 degrees F. for the term of the grow out. Average moisture content in the bedding was maintained below 14%. The term of the grow out was 39 days.

poults (turkeys) = assay: Turkey grow out in 20,000 Ft^2 poultry house; type: in vivo
Experimental: as §1
4. (Prior art) a poultry house was prepared by cleaning out the used animal bedding (shaved wood chips). The poultry house was then sprayed with a maximum formulation of formaldehyde. After a 72 hour drying period, new shaved wood chips were spread in the poultry house and stocked with 15,000 thousand poults (turkeys). The temperature of the house was maintained at 74°% F±4 degrees F. for the term of the grow out. The term of the grow out was 100 days, average moisture content in the bedding was maintained below 14%. Average relative humidity in the house atmosphere ranged from 40% to 84%.
After two to three weeks, 200 pounds of alum (or aluminum sulfate) was spread evenly on top of the shaved wood chips and dispersed throughout.
5. A poultry house was prepared by spraying all house surfaces (ceiling, walls, and padding/floor) with a solution of 2 pounds of 18.7% formulated TCM per 300 gallons of water. The concentration of the TCM for the washdown was 200 ppm. 12,000 young poults (turkeys) were then placed in the poultry house for a 100-day grow out. The average temperature of the house was maintained at 78° F.±4 degrees for the term of the grow out. The bedding material used was shaved wood chips. Average moisture content in the bedding was maintained below 14%. Average humidity in the house atmosphere ranged from 40% to 68%. The term of the grow out was 100 days.
6. A poultry house was prepared by spraying all house surfaces (ceiling, walls, and padding) after a complete cleanout of previous used wood shavings and manure, with a solution of 2 pounds of 18.7% TCM formulation to 300 gallons of water. The concentration of TCM for the washdown was 200 ppm. 6000 young poults (turkeys) were placed on 3 tons of fresh shaved wood chips in the poultry house. A direct spray-on application of the TCM formulation was sprayed on the new wood shavings and allowed to dry. The solution consisted of 1 pound of formulated TCM to 125 gallons of water or 100 ppm. The average temperature inside the poultry house was maintained at 80 degrees±4 degrees F. for the term of the grow out. Average moisture content in the bedding was maintained below 14%. Average relative humidity in the house atmosphere ranged from 50% to 85%. The term of the grow out was 100 days. The poultry house was retreated via a direct spray-on of the formulated TCM was applied to the bedding material at week 10 of the grow out period for the same batch of turkey poults. The concentration of the TCM in solution was 1 pound of formulated TCM per 125 gallons of water.

e.Coli = assay: Feces sample from animal bedding tested for e.Coli by independent laboratory; conditions: Example 8: 190 ppm TCM washdown; 16,000 poults; feces sample at eight weeks
Experimental: (§2) 8. A turkey house was prepared by spraying all surfaces with a solution of TCM. New wood chip bedding was then applied. The concentration was 10 pounds of TCM in 1,600 gallons of water or 190 ppm., 16,000 young poults (turkeys) were then placed in the poultry house for a 100 day grow out.
(§3) The purpose of this application was to compare e.Coli and salmonella results in a controlled environment as an alternative to formaldehyde, the current sanitizing method used by the poultry industry. At eight weeks of the grow out period after the wash down and the placement of the young poults, a feces sample was acquired from the animal bedding to determine disease levels from both the test poultry house and the control poultry house of Example 1. An independent laboratory tested the two samples.

salmonella = assay: Feces sample from animal bedding tested for salmonella by independent laboratory; conditions: Example 8: 190 ppm TCM washdown; 16,000 poults; feces sample at eight weeks
Experimental: as §2, §3

Other avian diseases = assay: Feces sample from animal bedding tested for other avian diseases; conditions: Example 8: 190 ppm TCM washdown; feces sample at eight weeks
Experimental: as §2, §3

[1] = system: hog waste total bacterial content; assay: Percent kill in hog waste mixed with TCM solutions; type: cell-based
Experimental: 9. Test were conducted on hog waste, 3 gallons of hog waste feces, urine and spillage were prepared. […] Various solution samples of TCM solutions were prepared and mixed with the 3 gallon samples. The percent kill of these various samples was in accordance with Table III.

[2] = Example 3 (prior art): formaldehyde spray, new wood chips, 200 pounds of alum after two weeks, 19,000 chickens, 45 days
[3] = Example 4 (prior art): formaldehyde spray, new wood chips, 200 pounds of alum after two to three weeks, 15,000 poults, 100 days
[4] = Example 7: 100 ppm TCM sprayed on 18 month used bedding, 19,000 chickens, 39 days
[5] = Example 5: house surfaces sprayed with 200 ppm TCM, 12,000 poults, 100-day grow out
[6] = Example 6: 200 ppm TCM washdown, 100 ppm spray on new wood shavings, retreated at week 10, 6000 poults, 100 days

C=O [formaldehyde, reference compound]
average weight gain for the chickens (chickens; [2]): 3.96 pounds
bird mortality rate (chickens; [2]): 3.56%
percentage of birds condemned at the processing facility (chickens; [2]): 0.15%
average weight gain for the turkeys (poults (turkeys); [3]): 21.8 pounds
bird mortality rate (poults (turkeys); [3]): 8.1%
birds condemned at the processing facility (poults (turkeys); [3]): 2.3%

trichloromelamine [TCM]
weight gains of the chickens versus control poultry house (chickens; Example 7: 100 ppm TCM on used bedding vs control house treated with alum): insignificant difference
average weight (chickens; [4]): 4 pounds
bird mortality rate (chickens; [4]): 1.1%
birds condemned at the poultry processing facility (chickens; [4]): 0.04%
e.Coli in the animal bedding material (e.Coli): no e.Coli or salmonella
bird mortality (poults (turkeys); [5]): 2.7%
birds condemned at the processing facility (poults (turkeys); [5]): 1.7%
weight gain for the turkeys (poults (turkeys); [5]): 24.3 pounds
bird mortality (poults (turkeys); [6]): 0.7%
birds condemned at the poultry processing facility (poults (turkeys); [6]): 1.4%
weight gain for the birds (poults (turkeys); [6]): 23.9 pounds
salmonella in the animal bedding material (salmonella): no e.Coli or salmonella
other avian diseases in the animal bedding material (Other avian diseases): not in the TCM test house
PERCENT KILL ([1]; 0.25 oz. in 3 gallons of hog waste): 99.997%
PERCENT KILL ([1]; 0.50 oz. in 3 gallons of hog waste): 99.9995%
PERCENT KILL ([1]; 0.75 oz. in 3 gallons of hog waste): 99.998%
PERCENT KILL ([1]; 1.0 oz. in 3 gallons of hog waste): 99.9998%
PERCENT KILL ([1]; 2.0 oz. in 3 gallons of hog waste): 99.9996%
PERCENT KILL ([1]; 3.0 oz. in 3 gallons of hog waste): >99.9998%
PERCENT KILL ([1]; 4.0 oz. in 3 gallons of hog waste): >99.9998%

Source: patent US6749804B2, “Process for treating animal habitats” (H & S Chemical Company, Inc., priority 2000, dated 2004)
